According to ChEMBL document CHEMBL3352766, “Weakly anti-inflammatory limonoids from the seeds of Xylocarpus rumphii” (J Nat Prod, 2014):
pIC50: −log10 of the molar value. The source made the active and inactive calls. The rule behind the calls is not given here.

What was measured:
[1] = test system: J774.A1; assay: Antiinflammatory activity in mouse J774.A1 cells assessed as inhibition of LPS-induced NO production at 50 uM treated 2 hrs before LPS challenge measured after 20 hrs; type: functional, cell-based
[2] = test system: J774.A1; assay: Antiinflammatory activity in mouse J774.A1 cells assessed as inhibition of LPS-induced NO production treated 2 hrs before LPS challenge measured after 20 hrs; type: functional, cell-based

SMILES | inhibition [1] | pIC50 [2]
CC[C@H](C)C(=O)O[C@@H]1[C@H]2[C@@H](OC(=O)C(C)C)C(C)(C)[C@H](CC(=O)OC)[C@@]3(C)[C@H]4CC[C@]5(C)[C@@H](CC(=O)O[C@H]5c5ccoc5)[C@@]14O[C@@]23O | inactive | –
CC[C@H](C)C(=O)O[C@H]1C(C)(C)[C@H](CC(=O)OC)[C@@]2(C)[C@H]3CC[C@]4(C)[C@@H](CC(=O)O[C@H]4c4ccoc4)[C@]34O[C@@]2(O)[C@@]1(O)[C@H]4OC(=O)[C@@H](C)CC | inactive | –
CC[C@H](C)C(=O)O[C@H]1C(C)(C)[C@H](CC(=O)OC)[C@@]2(C)[C@H]3CC[C@]4(C)C(=CC(=O)O[C@H]4c4ccoc4)[C@]34O[C@@]2(O)[C@@]1(O)[C@H]4OC(=O)[C@@H](C)CC | – | 4.50
CC[C@H](C)C(=O)O[C@H]1[C@@]23O[C@]4(O)[C@@](C)([C@@H](CC(=O)OC)C(C)(C)[C@H](OC(=O)C(C)C)[C@]14O)[C@H]2CC[C@]1(C)[C@H]3CC(=O)O[C@H]1c1ccoc1 | – | 4.61
COC(=O)C[C@H]1C(C)(C)[C@H](OC(=O)C(C)C)[C@@H]2[C@@H](OC(=O)C(C)C)[C@@]34O[C@]2(O)[C@]1(C)[C@H]3CC[C@]1(C)[C@H]4CC(=O)O[C@H]1c1ccoc1 | inactive | –
CC[C@H](C)C(=O)O[C@H]1C(C)(C)[C@H](CC(=O)OC)[C@@]2(C)[C@H]3CC[C@]4(C)C(=CC(=O)O[C@H]4c4ccoc4)[C@]34O[C@@]2(O)[C@@]1(O)[C@H]4OC(=O)C(C)C | inactive | –
COc1ccc2c(c1)c(CC(=O)O)c(C)n2C(=O)c1ccc(Cl)cc1 [INDOMETHACIN] | – | 4.54
COC(=O)C[C@H]1[C@]2(C)C[C@@]34OC5(C)O[C@]6([C@@H]7[C@H](O)C(=O)O[C@@H](c8ccoc8)[C@]7(C)CC[C@]6(O5)[C@]13C)[C@H](OC(C)=O)[C@@]4(OC(C)=O)[C@H]2OC(C)=O | inactive | –
COC(=O)C[C@H]1C(C)(C)[C@H](OC(C)=O)[C@]2(O)[C@@H](OC(=O)C(C)C)[C@@]34O[C@]2(O)[C@]1(C)[C@H]3CC[C@]1(C)[C@H]4CC(=O)O[C@H]1c1ccoc1 | inactive | –
